According to ChEMBL document CHEMBL2034973, “Exploring activity cliffs in medicinal chemistry” (J Med Chem, 2012):

Tests used:
Cathepsin B = Cathepsin B (Homo sapiens, UniProt P07858); experiment: Inhibition of cathepsin B
Procathepsin L = Procathepsin L (Homo sapiens, UniProt P07711); experiment: Inhibition of cathepsin L
[1] = biological target: T1, Prostaglandin G/H synthase 2 (Homo sapiens, UniProt P35354); experiment: Inhibition of COX2
T1 sequence (P35354 whole entry): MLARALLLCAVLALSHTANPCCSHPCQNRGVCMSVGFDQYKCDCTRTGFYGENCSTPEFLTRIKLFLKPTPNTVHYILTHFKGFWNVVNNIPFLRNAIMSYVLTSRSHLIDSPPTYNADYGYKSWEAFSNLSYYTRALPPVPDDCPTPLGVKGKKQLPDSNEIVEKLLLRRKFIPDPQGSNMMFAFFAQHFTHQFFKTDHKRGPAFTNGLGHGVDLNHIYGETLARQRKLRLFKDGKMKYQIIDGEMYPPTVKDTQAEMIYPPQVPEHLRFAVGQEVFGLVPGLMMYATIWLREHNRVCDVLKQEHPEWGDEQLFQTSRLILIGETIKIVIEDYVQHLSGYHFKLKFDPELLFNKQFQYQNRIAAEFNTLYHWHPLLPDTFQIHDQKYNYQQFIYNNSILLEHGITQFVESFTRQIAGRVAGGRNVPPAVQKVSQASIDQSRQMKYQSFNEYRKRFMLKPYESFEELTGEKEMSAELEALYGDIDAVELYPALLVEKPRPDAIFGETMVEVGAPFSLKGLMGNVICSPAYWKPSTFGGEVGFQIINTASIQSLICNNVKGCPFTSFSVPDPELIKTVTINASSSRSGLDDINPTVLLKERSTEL

[2] = biological target: Prostaglandin G/H synthase 1 (Homo sapiens, UniProt P23219); experiment: Inhibition of COX1
Chain of Prostaglandin G/H synthase 1 (P23219 whole entry): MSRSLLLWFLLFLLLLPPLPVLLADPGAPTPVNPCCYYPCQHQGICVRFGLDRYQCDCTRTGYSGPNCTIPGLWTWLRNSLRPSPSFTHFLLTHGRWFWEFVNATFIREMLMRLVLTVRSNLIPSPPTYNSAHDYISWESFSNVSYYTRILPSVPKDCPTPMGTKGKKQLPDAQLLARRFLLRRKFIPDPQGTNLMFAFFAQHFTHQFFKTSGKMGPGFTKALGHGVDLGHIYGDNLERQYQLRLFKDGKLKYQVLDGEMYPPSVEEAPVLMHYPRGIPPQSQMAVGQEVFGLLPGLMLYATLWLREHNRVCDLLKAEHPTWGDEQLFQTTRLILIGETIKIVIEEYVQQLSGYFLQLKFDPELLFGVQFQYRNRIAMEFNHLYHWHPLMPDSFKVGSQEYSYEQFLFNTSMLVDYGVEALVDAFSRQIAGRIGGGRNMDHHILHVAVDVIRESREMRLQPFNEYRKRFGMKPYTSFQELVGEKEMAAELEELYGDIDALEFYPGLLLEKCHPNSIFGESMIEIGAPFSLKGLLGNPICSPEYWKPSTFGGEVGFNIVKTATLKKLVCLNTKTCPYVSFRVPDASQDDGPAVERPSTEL

Chain of Procathepsin L (P07711 whole entry): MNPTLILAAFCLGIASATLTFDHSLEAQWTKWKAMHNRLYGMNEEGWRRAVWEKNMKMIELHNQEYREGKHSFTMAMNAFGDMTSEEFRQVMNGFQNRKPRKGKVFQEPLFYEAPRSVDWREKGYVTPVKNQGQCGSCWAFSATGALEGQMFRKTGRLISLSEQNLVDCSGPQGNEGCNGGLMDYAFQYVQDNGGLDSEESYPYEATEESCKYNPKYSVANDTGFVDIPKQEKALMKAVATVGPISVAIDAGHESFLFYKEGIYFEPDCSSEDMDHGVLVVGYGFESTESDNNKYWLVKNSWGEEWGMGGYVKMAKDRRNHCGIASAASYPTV

| IC50 (Cathepsin B) | IC50 (Procathepsin L) | IC50 [1] | IC50 [2] | SMILES |
| --- | --- | --- | --- | --- |
| 5.3 µM | 26 µM |  |  | N#CCNC(=O)C1CCCCC1CSc1ccccc1 (stereo unspecified) |
|  |  | > 10 µM | 0.007 µM | Cc1ccc(Nc2c(F)cccc2Cl)c(CC(=O)O)c1 [LUMIRACOXIB] |
| 102 µM | 3.6 µM |  |  | N#CCNC(=O)C1CCCCC1CSc1cccc(Cl)c1 (stereo unspecified) |
